Patent US12692247B2, “Phenyl- and pyridopyrazole derivatives as inhibitors of DDR1” (Redx Pharma Limited, priority 2021, dated 2026)

Key:
Recombinant human DDR2 = target: T1, Recombinant human DDR2 (Homo sapiens, UniProt Q16832); assay: LanthaScreen Eu Kinase Binding Assay, DDR2; details: recombinant human DDR2 (1.75 nM; aa427-855, GST tag), Kinase Tracer 178 10 nM, time-resolved fluorescence, at least two independent replicates; read-out: DDR2 pIC50 (converted)
T1 construct: DDR2 (1.75 nM; aa427-855 containing a GST tag)
T1 sequence (Q16832 427-855): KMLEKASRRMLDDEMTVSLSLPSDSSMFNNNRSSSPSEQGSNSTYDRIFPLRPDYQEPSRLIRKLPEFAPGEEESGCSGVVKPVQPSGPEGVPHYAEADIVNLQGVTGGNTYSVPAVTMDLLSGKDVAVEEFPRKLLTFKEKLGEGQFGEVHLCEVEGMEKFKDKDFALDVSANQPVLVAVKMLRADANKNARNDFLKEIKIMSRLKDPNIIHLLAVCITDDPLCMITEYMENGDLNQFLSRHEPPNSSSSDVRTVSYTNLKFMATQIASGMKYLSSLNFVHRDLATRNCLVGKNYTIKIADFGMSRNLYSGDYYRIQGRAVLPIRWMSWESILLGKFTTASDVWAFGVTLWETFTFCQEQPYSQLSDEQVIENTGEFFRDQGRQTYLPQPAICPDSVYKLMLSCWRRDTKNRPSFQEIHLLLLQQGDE
Description: (§1) DDR1 and DDR2 Biochemical Assay Method
(§2) The capacity of compounds to bind to DDR1 and DDR2 was quantified using a LanthaScreen Eu Kinase Binding Assay. Recombinant human DDR1 (2.5 nM; aa440-876 containing a GST tag) and DDR2 (1.75 nM; aa427-855 containing a GST tag) were diluted in assay buffer (50 mM HEPES pH7.3, 10 mM MgCl2, 1 mM EGTA and 0.01% Tween) with various concentrations of compound in a 384-well plate and a volume of 5 uL. After a 30-minute incubation at room temperature, 2.5 uL of Eu-anti GST antibody (diluted to 1 nM in assay buffer) plus Kinase Tracer 178 (diluted in assay buffer to 5 nM for DDR1 and 10 nM for DDR2) were added to the plate. Following 60-minute incubation at room temperature, time-resolved fluorescence was measured on a BMG Labtech PHERAstar plate reader. DMSO (1%) and reference compound (1 μM) were used to generate the Max and Min assay signals, respectively. Data was analysed using a four-parameter logistic model to calculate IC50 values, with at least two independent replicates were performed for each compound.

Recombinant human DDR1 = target: T2, Recombinant human DDR1 (Homo sapiens, UniProt Q08345); assay: LanthaScreen Eu Kinase Binding Assay, DDR1; details: recombinant human DDR1 (2.5 nM; aa440-876, GST tag), Kinase Tracer 178 5 nM, time-resolved fluorescence, at least two independent replicates; read-out: DDR1 pIC50 (converted)
T2 construct: Recombinant human DDR1 (2.5 nM; aa440-876 containing a GST tag)
T2 sequence (Q08345 440-876 isoform Q08345-2): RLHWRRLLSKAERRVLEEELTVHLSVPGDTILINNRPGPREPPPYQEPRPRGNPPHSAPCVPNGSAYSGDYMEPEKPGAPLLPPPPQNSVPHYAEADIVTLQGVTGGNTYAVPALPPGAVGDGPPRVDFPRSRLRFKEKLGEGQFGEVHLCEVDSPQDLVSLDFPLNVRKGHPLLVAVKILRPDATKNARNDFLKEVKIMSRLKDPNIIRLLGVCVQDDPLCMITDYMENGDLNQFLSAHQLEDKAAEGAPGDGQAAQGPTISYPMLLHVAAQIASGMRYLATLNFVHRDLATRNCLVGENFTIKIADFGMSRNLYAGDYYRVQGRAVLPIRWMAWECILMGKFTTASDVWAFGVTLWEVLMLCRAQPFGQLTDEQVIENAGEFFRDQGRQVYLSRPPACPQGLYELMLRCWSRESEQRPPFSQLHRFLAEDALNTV
Description: as §1, §2

Compound | IC50 (Recombinant human DDR2) | IC50 (Recombinant human DDR1)
Cn1cnc(NC(=O)Cn2ccc3cccc(Nc4ccc5c(cnn5C)c4)c3c2=O)c1 [Example 81, N-(1-methylimidazol-4-yl)-2-[8-[(1-methylindazol-5-yl)amino]-1-oxo-2-isoquinolyl]acetamide] | ≥ 1000 nM | 10 to 100 nM
Cn1ncc2cc(Nc3cccc4ccn(CC(=O)N5CCOCC5C(F)(F)F)c(=O)c34)ccc21 (centres unmarked) [Example 87, 8-[(1-methylindazol-5-yl)amino]-2-[2-oxo-2-[3-(trifluoromethyl)morpholin-4-yl]ethyl]isoquinolin-1-one] | 100 to 1000 nM | 10 to 100 nM
CN(c1ccc2c(cnn2C)c1)c1cccc2ccn(CC(=O)NCC(F)(F)F)c(=O)c12 [Example 88, 2-[8-[methyl-(1-methylindazol-5-yl)amino]-1-oxo-2-isoquinolyl]-N-(2,2,2-trifluoroethyl) acetamide] | 100 to 1000 nM | 10 to 100 nM
Cn1ncc2cc(Nc3cccc4ccn(CC(=O)N5CCCCC5)c(=O)c34)ccc21 [Example 93] | 100 to 1000 nM | 100 to 1000 nM
Cn1ncc2cc(Nc3cccc4ccn(CC(=O)N5CCCC5)c(=O)c34)ccc21 [Example 94, 8-[(1-methyl-1H-indazol-5-yl)amino]-2-[2-oxo-2-(pyrrolidin-1-yl)ethyl]-1,2-dihydroisoquinolin-1-one] | ≥ 1000 nM | 100 to 1000 nM
Cn1ncc2cc(Nc3cccc4ccn(CC(=O)Nc5cnco5)c(=O)c34)ccc21 [Example 95, 2-{8-[(1-methyl-1H-indazol-5-yl)amino]-1-oxo-1,2-dihydroisoquinolin-2-yl}-N-(1,3-oxazol-5-yl)acetamide] | 100 to 1000 nM | 10 to 100 nM
C[C@@H]1COC[C@H](C)N1C(=O)Cn1ccc2cccc(Nc3ccc4c(cnn4C)c3)c2c1=O [Example 96, 2-{2-[(3R,5S)-3,5-dimethylmorphin-4-yl]-2-oxoethyl}-8-[(1-methyl-1H-indazol-5-yl)amino]-1,2-dihydroisoquinolin-1-one] | ≥ 1000 nM | 100 to 1000 nM
Cn1ncc2cc(Nc3cccc4ccn(CC(=O)N5C6CCC5COC6)c(=O)c34)ccc21 [Example 97, 8-[(1-methyl-1H-indazol-5-yl)amino]-2-(2-{3-oxa-8-azabicyclo[3.2.1]octan-8-yl}-2-oxoethyl)-1,2-dihydroisoquinolin-1-one] | ≥ 1000 nM | 100 to 1000 nM
Cc1cc(C)n(C(=O)Cn2ccc3cccc(Nc4ccc5c(cnn5C)c4)c3c2=O)n1 [Example 98, 2-[2-(3,5-dimethyl-1H-pyrazol-1-yl)-2-oxoethyl]-8-[(1-methyl-1H-indazol-5-yl)amino]-1,2-dihydroisoquinolin-1-one] | 10 to 100 nM | 10 to 100 nM
Cn1ncc2cc(Nc3cccc4ccn(CC(=O)Nc5cncc(C(F)(F)F)c5)c(=O)c34)cnc21 [Example 99, 2-[8-({1-methyl-1H-pyrazolo[3,4-b]pyridine-5-5-yl}amino)1-oxo-1,2-dihydroisoquinolin-2-yl]-N-[5-(trifluoromethyl)pyridine-3-yl]acetamide] | 10 to 100 nM | 10 to 100 nM
Cn1ncc2cc(Nc3cccc4ccn(CC(=O)Nc5cnoc5)c(=O)c34)cnc21 [Example 101] | 100 to 1000 nM | 10 to 100 nM
Cn1ncc2cc(Nc3cccc4ccn(CC(=O)Nc5cccc(C(C)(C)N)c5)c(=O)c34)ccc21 [Example 103] | 10 to 100 nM | < 10 nM
CN(C)Cc1cccc(NC(=O)Cn2ccc3cccc(Nc4ccc5c(cnn5C)c4)c3c2=O)c1 [Example 104, N-{3-[(dimethylamino)methyl]phenyl}-2-{8-[(1-methyl-1H-indazol-5-yl)amino]-1-oxo-1,2-dihydroisoquinolin-2-yl}acetamide] | 100 to 1000 nM | 10 to 100 nM
CN(C)Cc1ccc(NC(=O)Cn2ccc3cccc(Nc4ccc5c(cnn5C)c4)c3c2=O)cc1C(F)(F)F [Example 112, N-[4-[(dimethylamino)methyl]-3-(trifluoromethyl)phenyl]-2-[8-[(1-methylindazol-5-yl)amino]-1-oxo-2-isoquinolyl]acetamide] | 10 to 100 nM | < 10 nM
Cn1ncc2cc(Nc3cccc4ccn(CC(=O)NCC(F)(F)F)c(=O)c34)cc(C#N)c21 [Example 119, 2-(8-((7-cyano-1-methyl-1H-indazol-5-yl)amino)-1-oxoisoquinolin-2(1H)-yl)-N-(2,2,2-trifluoroethyl)acetamide] | ≥ 1000 nM | < 10 nM

Other lines, results leading:

IC50 (Recombinant human DDR2) | IC50 (Recombinant human DDR1) | Compound
100 to 1000 nM | 10 to 100 nM | Cn1ncc2cc(Nc3cccc4ccn(CC(=O)N5CCCC(C(F)(F)F)C5)c(=O)c34)ccc21 (centres unmarked) [Example 121]
≥ 1000 nM | 100 to 1000 nM | Cn1ncc2cc(Nc3cccc4ccn(CC(=O)NCC(F)(F)F)c(=O)c34)cc(C(N)=O)c21 [Example 125, 1-Methyl-5-[[1-oxo-2-[2-oxo-2-(2,2,2-trifluoroethylamino)ethyl]-8-isoquinolyl]amino]indazole-7-carboxamide]
10 to 100 nM | < 10 nM | Cn1ncc2cc(Nc3cccc4ccn(CC(=O)N5CCC[C@H]5C(F)F)c(=O)c34)ccc21 [Example 131, 2-[2-[(2S)-2-(difluoromethyl)pyrrolidin-1-yl]-2-oxo-ethyl]-8-[(1-methylindazol-5-yl)amino]isoquinolin-1-one]
100 to 1000 nM | 10 to 100 nM | CN(C)CCc1ccc(NC(=O)Cn2ccc3cccc(Nc4ccc5c(cnn5C)c4)c3c2=O)cc1C(F)(F)F [Example 133, N-[4-[(dimethylamino)ethyl]-3-(trifluoromethyl)phenyl]-2-[8-[(1-methylindazol-5-yl)amino]-1-oxo-2-isoquinolyl]acetamide]
10 to 100 nM | < 10 nM | Cn1ncc2cc(Nc3cccc4ccn(CC(=O)N5CCC[C@H]5CF)c(=O)c34)ccc21 [Example 136, 2-[2-[(2S)-2-(fluoromethyl)pyrrolidin-1-yl]-2-oxo-ethyl]-8-[(1-methylindazol-5-yl)amino]isoquinolin-1-one]
≥ 1000 nM | ≥ 1000 nM | Cn1ncc2cc(Nc3cccc4ccn(CC(=O)NCC56CCCN5CCC6)c(=O)c34)ccc21 [Example 138]
10 to 100 nM | 10 to 100 nM | CN(c1ccc2c(cnn2C)c1)c1cccc2ccn(CC(=O)Nc3cnoc3)c(=O)c12 [Example 140, N-isoxazol-4-yl-2-[8-[methyl-(1-methylindazol-5-yl)amino]-1-oxo-2-isoquinolyl]acetamide]
≥ 1000 nM | 100 to 1000 nM | CC(=O)C1CCCCN1C(=O)Cn1ccc2cccc(Nc3ccc4c(cnn4C)c3)c2c1=O (centres unmarked) [Example 141, 2-[2-(2-acetyl-1-piperidyl)-2-oxoethyl]-8-[(1-methylindazol-5-yl)amino]isoquinolin-1-one]
100 to 1000 nM | 10 to 100 nM | C[C@H](NC(=O)Cn1ccc2cccc(N(C)c3ccc4c(cnn4C)c3)c2c1=O)C(F)(F)F [Example 143, 2-[8-[methyl-(1-methylindazol-5-yl)amino]-1-oxo-2-isoquinolyl]-N-[(1S)-2,2,2-trifluoro-1-methyl-ethyl]acetamide]
100 to 1000 nM | 10 to 100 nM | CN(c1ccc2c(cnn2C)c1)c1cccc2ccn(CC(=O)Nc3cccc(C(F)(F)F)c3)c(=O)c12 [Example 144, 2-[8-[methyl-(1-methylindazol-5-yl)amino]-1-oxo-2-isoquinolyl]-N-[3-(trifluoromethyl)phenyl]acetamide]
